Series [1] concerns the target T1, Thioredoxin reductase 1, cytoplasmic (Homo sapiens, UniProt Q16881).
T1 sequence (Q16881 whole entry): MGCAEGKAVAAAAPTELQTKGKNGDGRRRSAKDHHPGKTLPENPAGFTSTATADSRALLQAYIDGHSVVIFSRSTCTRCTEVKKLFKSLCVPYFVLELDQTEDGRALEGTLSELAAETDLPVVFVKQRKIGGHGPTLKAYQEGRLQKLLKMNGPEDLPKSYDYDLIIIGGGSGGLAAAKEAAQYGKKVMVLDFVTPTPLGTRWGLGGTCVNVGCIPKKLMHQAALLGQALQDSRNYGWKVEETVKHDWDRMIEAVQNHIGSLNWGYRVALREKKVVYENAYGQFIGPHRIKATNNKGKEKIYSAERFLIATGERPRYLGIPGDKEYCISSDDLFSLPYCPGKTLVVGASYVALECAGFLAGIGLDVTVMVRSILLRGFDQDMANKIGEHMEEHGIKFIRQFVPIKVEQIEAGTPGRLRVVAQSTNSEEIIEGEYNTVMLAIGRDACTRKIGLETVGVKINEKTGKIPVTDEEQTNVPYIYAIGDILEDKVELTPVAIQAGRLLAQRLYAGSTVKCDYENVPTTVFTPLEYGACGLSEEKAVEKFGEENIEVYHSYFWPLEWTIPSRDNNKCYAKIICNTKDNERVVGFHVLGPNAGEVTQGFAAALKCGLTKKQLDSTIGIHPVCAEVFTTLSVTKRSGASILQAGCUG
The series can be described thus: Binding affinity to TrxR1 (unknown origin) assessed as dissociation constant by SPR analysis.

The target in series [2] is T2, Thioredoxin reductase 1, cytoplasmic (Homo sapiens) (UniProt Q16881).
T2 sequence (whole entry): T1 sequence (Q16881 whole entry)
The series can be described thus: Binding affinity to TrxR1 in human A549 cells assessed as thermal stabilization by measuring reduction in thermal denaturation at 200 uM incubated for 90 mins by CETSA analysis. Type of series: cell-based.

Series [3] addresses T2, Thioredoxin reductase 1, cytoplasmic (Homo sapiens). The series is described as follows: Binding affinity to TrxR1 (unknown origin) at Sec498 residue by pull-down analysis.
Series [4] has the same target. The series can be described thus: Inhibition of TrxR1 (unknown origin) using DTNB as substrate preincubated for 1.5 hrs by microplate reader analysis.
Series [5] has the same target. The series can be described thus: Binding affinity to TrxR1 (unknown origin) at Cys475 residue.
The subject of series [6] is NCI-H1299. The series can be described thus: Cytotoxicity against human NCI-H1299 cells assessed as cell viability incubated for 48 hrs by MTT assay. The series is classed as functional, cell-based. As to conditions: NCI-H1299, 48 h. (In general: Tetrazolium dyes change colour on reduction, which living cells bring about.)
The test system of series [7] is A549. The series is described as follows: Cytotoxicity against human A549 cells assessed as cell viability incubated for 48 hrs by MTT assay. As to conditions: A549, 48 h. Type of series: functional, cell-based.
Series [8] has as its system NCI-H460. The series is described as follows: Cytotoxicity against human NCI-H460 cells assessed as cell viability incubated for 48 hrs by MTT assay. Type of series: functional, cell-based. As to conditions: NCI-H460, 48 h.
Series [9] can be described thus: Cytotoxicity against human BEAS-2B cells assessed as cell viability incubated for 48 hrs by MTT assay. Type of series: toxicity, cell-based.
In series [10] the test system is A549. The series can be described thus: Induction of ROS generation in human A549 cells by DCFH-DA probe based flow cytometry analysis. Type of series: functional, cell-based.
Series [11] relates to NCI-H460. The series is described as follows: Induction of ROS generation in human NCI-H460 cells by DCFH-DA probe based flow cytometry analysis. Type of series: functional, cell-based. (In general: A flow cytometer gives signals particle by particle.)

This note sets out measurements from ChEMBL document CHEMBL6121052, “Design of ROS-Triggered Sesquiterpene Lactone SC Prodrugs as TrxR1 Covalent Inhibitors for the Treatment of Non-Small Cell Lung Cancer” (J Med Chem, 2025).

As usually defined, the Kd is the concentration at which binding is half-saturated. What is called IC50 is the concentration that inhibits the measured activity by half.

Active and inactive are the calls of the source. The rule behind the calls is not given here.

On to `C=C1C(=O)O[C@H]2CC3=C[C@H](C/C(C)=C/[C@@H](OC(=O)NCCC)[C@H]12)OC3=O`, for which the dissociation constant Kd in series [1] is 7.89 µM. Also, the result in series [2], in [3] and in series [5] was Active. The inhibition entry in series [4] is “Active”.
As to `C/C1=C\[C@@H](OC(=O)OCc2cccnc2)[C@H]2[C@H](CC3=C[C@H](C1)OC3=O)OC(=O)[C@@H]2CSc1ccc(F)cc1`, the half-inhibitory concentration (IC50) is 11.5 µM in series [6] and 1.56 µM in series [7].
On the same counts, the results for `CCCCCSC(=O)O[C@@H]1/C=C(\C)C[C@H]2C=C(C[C@@H]3OC(=O)[C@H](CSC(=S)N(C)C)[C@H]31)C(=O)O2` are 2.64 µM and 1.06 µM.
In the same order, the values of `C/C1=C\[C@@H](OC(=O)SCC(C)C)[C@H]2[C@H](CC3=C[C@H](C1)OC3=O)OC(=O)[C@@H]2CSc1ccc(F)cc1` are 5.37 µM and 2.57 µM.
`C/C1=C\[C@@H](OC(=O)C2CC2)[C@H]2[C@H](CC3=C[C@H](C1)OC3=O)OC(=O)[C@@H]2CSc1ccc(Br)cc1`: the half-maximal inhibitory concentration (IC50) is greater than 25 µM in [8] and 4.6 µM in [7]. Moreover, the half-inhibitory concentration (IC50) at 48 h in series [9] was greater than 25 µM.
`C=C1C(=O)O[C@H]2CC3=C[C@H](C/C(C)=C/[C@@H](O)[C@H]12)OC3=O`: in [1], the Kd came to 42.7 µM.
In the case of `C/C1=C\[C@@H](OC(=O)C2CC2)[C@H]2[C@H](CC3=C[C@H](C1)OC3=O)OC(=O)[C@@H]2CSc1ccc(F)cc1`, the IC50 in series [8] is greater than 25 µM; in series [7] it was 4.41 µM. For the same compound, the result in series [10] and in [11] was Active. For the same compound, the half-maximal inhibitory concentration (IC50) at 48 h in [9] was greater than 25 µM.
On to `C/C1=C\[C@@H](OC(=O)NCc2ccc(F)cc2)[C@H]2[C@H](CC3=C[C@H](C1)OC3=O)OC(=O)[C@@H]2CSc1ccc(F)cc1`, for which the 50% inhibitory concentration (IC50) in [6] was 5.37 µM; in series [7], 5.05 µM.
On the same counts, the results for `C/C1=C\[C@@H](OC(=O)OCc2ccc(F)cc2)[C@H]2[C@H](CC3=C[C@H](C1)OC3=O)OC(=O)[C@@H]2CSC(=S)N(C)C` are 2.93 µM and 0.47 µM.
For `C/C1=C\[C@@H](OC(=O)C2CC2)[C@H]2[C@H](CC3=C[C@H](C1)OC3=O)OC(=O)[C@@H]2CSC(=S)N(C)C`, the IC50 came to 7.75 µM in [8], 2.18 µM in [6] and 0.57 µM in series [7].
Consider `C/C1=C\[C@@H](OC(=O)OC2CC2)[C@H]2[C@H](CC3=C[C@H](C1)OC3=O)OC(=O)[C@@H]2CSc1ccc(F)cc1`, for which the figures for the IC50 in series [6] and in series [7] were 3.04 µM and 3.91 µM, respectively.
Regarding `C/C1=C\[C@@H](OC(=O)C2CC2)[C@H]2[C@H](CC3=C[C@H](C1)OC3=O)OC(=O)[C@@H]2CSc1ccc(C(F)(F)F)cc1`, the concentration for half-maximal inhibition (IC50) is greater than 25 µM in [8] and 3.86 µM in series [7]. The IC50 at 48 h in series [9] was greater than 25 µM.
Regarding `C/C1=C\[C@@H](OC(=O)c2ccccc2)[C@H]2[C@H](CC3=C[C@H](C1)OC3=O)OC(=O)[C@@H]2CSC1CCCCC1`, the half-inhibitory concentration (IC50) in series [8] and in [7] was greater than 25 µM throughout.
As to `C/C1=C\[C@@H](OC(=O)c2ccccc2)[C@H]2[C@H](CC3=C[C@H](C1)OC3=O)OC(=O)[C@@H]2CSc1nc2ccccc2s1`, the 50% inhibitory concentration (IC50) in series [8] and in [7] was greater than 25 µM throughout.
Consider `C/C1=C\[C@@H](OC(=O)c2ccccc2)[C@H]2[C@H](CC3=C[C@H](C1)OC3=O)OC(=O)[C@@H]2CSCCOCCOCCSC[C@H]1C(=O)O[C@H]2CC3=C[C@H](C/C(C)=C/[C@@H](OC(=O)c4ccccc4)[C@@H]21)OC3=O`, for which the IC50 in series [8] and in [7] was greater than 25 µM in each case.
Regarding `C/C1=C\[C@@H](OC(=O)C2CC2)[C@H]2[C@H](CC3=C[C@H](C1)OC3=O)OC(=O)[C@@H]2CSCC(C)C`, the IC50 in series [8] and in [7] was greater than 25 µM throughout.
For `CCCCCSC[C@H]1C(=O)O[C@H]2CC3=C[C@H](C/C(C)=C/[C@@H](OC(=O)c4ccccc4)[C@@H]21)OC3=O`, the IC50 in [8] and in series [7] was greater than 25 µM in each case.
Consider `C/C1=C\[C@@H](O)[C@H]2[C@H](CC3=C[C@H](C1)OC3=O)OC(=O)[C@@H]2CSc1cccc(F)c1`, for which the IC50 in series [8] and in series [7] was greater than 25 µM each time.
On to `C/C1=C\[C@@H](OC(=O)C2CC2)[C@H]2[C@H](CC3=C[C@H](C1)OC3=O)OC(=O)[C@@H]2CSc1ccc([N+](=O)[O-])cc1`, for which the IC50 in [8] was greater than 25 µM; in [7] it was 5.12 µM.
In the same order, the values of `C/C1=C\[C@@H](O)[C@H]2[C@H](CC3=C[C@H](C1)OC3=O)OC(=O)[C@@H]2CSC1CCCCC1` are greater than 25 µM and greater than 25 µM.
On the same counts, the results for `C/C1=C\[C@@H](OC(=O)c2ccccc2)[C@H]2[C@H](CC3=C[C@H](C1)OC3=O)OC(=O)[C@@H]2CSCCCCCCCCSC[C@H]1C(=O)O[C@H]2CC3=C[C@H](C/C(C)=C/[C@@H](OC(=O)c4ccccc4)[C@@H]21)OC3=O` are greater than 25 µM and greater than 25 µM.
